Data: PubChem BioAssay AID330 (DTP/NCI, 2004)
Toxic doses and inconclusive results are not listed. The calls were made as follows: active = survival T/C of 150% or more; inactive = T/C below 125% in these data.

Tested on: P388 leukemia ip, CD2F1 mice, survival T/C
Assay: NCI In Vivo Anticancer Drug Screen. Data for tumor model P388 Leukemia (intraperitoneal) in CD2F1 (CDF1) mice
Conditions: endpoint: median survival time, higher = longer survival
Outline: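 Mice carrying the transplanted tumor received test compound or vehicle. Survival was recorded in each group, and the value is the treated-group measurement divided by that of the vehicle-treated control group.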

[1] = dose: 50.0 mg/kg/injection, schedule: Q01DX005 (ip), vehicle: saline with Tween-80
[2] = dose: 100.0 mg/kg/injection, schedule: Q01DX005 (ip), vehicle: saline with Tween-80
[3] = dose: 200.0 mg/kg/injection, schedule: Q01DX005 (ip), vehicle: saline with Tween-80
[4] = dose: 50.0 mg/kg/injection, schedule: Q01DX009 (ip), vehicle: saline
[5] = dose: 100.0 mg/kg/injection, schedule: Q01DX009 (ip), vehicle: saline
[6] = dose: 200.0 mg/kg/injection, schedule: Q01DX009 (ip), vehicle: saline
[7] = dose: 12.5 mg/kg/injection, schedule: Q01DX009 (ip), vehicle: distilled water + Tween-80
[8] = dose: 25.0 mg/kg/injection, schedule: Q01DX009 (ip), vehicle: distilled water + Tween-80
[9] = dose: 50.0 mg/kg/injection, schedule: Q01DX009 (ip), vehicle: distilled water + Tween-80
[10] = dose: 100.0 mg/kg/injection, schedule: Q01DX009 (ip), vehicle: distilled water + Tween-80
[11] = dose: 60.0 mg/kg/injection, schedule: Q01DX005 (ip), vehicle: saline with Tween-80
[12] = dose: 120.0 mg/kg/injection, schedule: Q01DX005 (ip), vehicle: saline with Tween-80
[13] = dose: 60.0 mg/kg/injection, schedule: Q01DX005 (ip), vehicle: saline
[14] = dose: 120.0 mg/kg/injection, schedule: Q01DX005 (ip), vehicle: saline
[15] = dose: 240.0 mg/kg/injection, schedule: Q01DX005 (ip), vehicle: saline
[16] = dose: 100.0 mg/kg/injection, schedule: Q01DX001 (ip), vehicle: saline with Tween-80
[17] = dose: 50.0 mg/kg/injection, schedule: Q01DX005 (ip), vehicle: Klucel (hydroxypropylcellulose) (HPC)
[18] = dose: 100.0 mg/kg/injection, schedule: Q01DX005 (ip), vehicle: Klucel (hydroxypropylcellulose) (HPC)
[19] = dose: 200.0 mg/kg/injection, schedule: Q01DX005 (ip), vehicle: Klucel (hydroxypropylcellulose) (HPC)
[20] = dose: 50.0 mg/kg/injection, schedule: Q01DX009 (ip), vehicle: saline with Tween-80
[21] = dose: 100.0 mg/kg/injection, schedule: Q01DX009 (ip), vehicle: saline with Tween-80
[22] = dose: 200.0 mg/kg/injection, schedule: Q01DX009 (ip), vehicle: saline with Tween-80

Measured: T/C

CC(=O)O[C@@H]1[C@H](C)[C@@H]2CC(=O)O[C@@H]3[C@H](OC(=O)C=C(C)C)[C@H]4C(C)=CC(=O)[C@@H](OC(C)=O)[C@]4(C)[C@H]4[C@@]1(O)OC[C@@]342
inactive: dose: 1.25 mg/kg/injection, schedule: Q01DX009 (ip), vehicle: Klucel (hydroxypropylcellulose) (HPC) 104 % of control | dose: 2.5 mg/kg/injection, schedule: Q01DX009 (ip), vehicle: Klucel (hydroxypropylcellulose) (HPC) 107 % of control | dose: 5.0 mg/kg/injection, schedule: Q01DX009 (ip), vehicle: Klucel (hydroxypropylcellulose) (HPC) 107 % of control | dose: 10.0 mg/kg/injection, schedule: Q01DX009 (ip), vehicle: Klucel (hydroxypropylcellulose) (HPC) 107 % of control

CC(=O)c1c(-c2ccc(F)cc2)c(-c2ccc(F)cc2)n[nH]c1=O
inactive: [1] 100 % of control | [2] 100 % of control | [3] 97 % of control

FC(F)(F)c1cccc(N=Cc2ccc(C=Nc3cccc(C(F)(F)F)c3)cc2)c1
inactive: [4] 99 % of control | [5] 99 % of control | [6] 97 % of control

CCOC(=O)c1cc2c(OC)c(OC)ccc2c2[nH]cc(C#N)c(=O)c12
inactive: [7] 100 % of control | [8] 94 % of control | [9] 93 % of control | [10] 90 % of control | dose: 200.0 mg/kg/injection, schedule: Q01DX009 (ip), vehicle: distilled water + Tween-80 86 % of control

Nc1cnc2nc(N)[nH]c(=O)c2c1
inactive: dose: 100.0 mg/kg/injection, schedule: Q01DX009 (ip), vehicle: saline sonified 120 % of control | dose: 200.0 mg/kg/injection, schedule: Q01DX009 (ip), vehicle: saline sonified 110 % of control | dose: 400.0 mg/kg/injection, schedule: Q01DX009 (ip), vehicle: saline sonified 105 % of control

COc1ccc(C2C3=C(CCCC3=O)Oc3cc4c(cc32)OCO4)c(OC)c1 (centres undefined)
inactive: [11] 99 % of control | [12] 90 % of control | dose: 240.0 mg/kg/injection, schedule: Q01DX005 (ip), vehicle: saline with Tween-80 90 % of control

CC(C)NC(=O)OCCS(=O)c1c(Cl)c(Cl)nn1C (centres undefined)
inactive: [11] 117 % of control | [12] 109 % of control

OC1COC(c2nn(-c3ccccc3)c3nc4ccccc4nc23)C1O (centres undefined)
inactive: [1] 87 % of control | [2] 87 % of control | [3] 87 % of control

Cc1ccc(S(=O)(=O)NC(=S)Nc2ccccc2)cc1
inactive: dose: 100.0 mg/kg/injection, schedule: Q04DX003 (ip), vehicle: saline with Tween-80 99 % of control | dose: 200.0 mg/kg/injection, schedule: Q04DX003 (ip), vehicle: saline with Tween-80 108 % of control | dose: 400.0 mg/kg/injection, schedule: Q04DX003 (ip), vehicle: saline with Tween-80 100 % of control

CCOC(=O)c1[nH]c(=O)[nH]c(=O)c1CBr
inactive: [7] 98 % of control | [8] 98 % of control | [9] 98 % of control | [10] 98 % of control

CN(C)CCC(=O)C(=Cc1cccs1)C(=O)CCN(C)C
inactive: [13] 101 % of control | [14] 98 % of control | [15] 106 % of control

COC(=O)C(OC)(OC)C(O)C(C)C (centres undefined)
inactive: [13] 104 % of control | [14] 103 % of control | [15] 103 % of control

O=C(NC(=S)c1cccs1)NS(=O)(=O)c1ccc(Cl)cc1
inactive: dose: 25.0 mg/kg/injection, schedule: Q01DX001 (ip), vehicle: saline with Tween-80 98 % of control | dose: 50.0 mg/kg/injection, schedule: Q01DX001 (ip), vehicle: saline with Tween-80 98 % of control | [16] 98 % of control

CCN(CC)c1ccc(CCc2ccc(N(CC)CC)c3cccnc23)c2ncccc12
inactive: [17] 99 % of control | [18] 112 % of control | [19] 94 % of control

C=C1CC2(CCCC3(C)CCC(C(C)C)CC32C)OC1=O (centres undefined)
inactive: dose: 100.0 mg/kg/injection, schedule: Q01DX001 (ip), vehicle: saline 101 % of control | dose: 200.0 mg/kg/injection, schedule: Q01DX001 (ip), vehicle: saline 106 % of control | dose: 400.0 mg/kg/injection, schedule: Q01DX001 (ip), vehicle: saline 110 % of control

CCC(/C=N/N=C(N)N)=N\N=C(N)N
inactive: dose: 50.0 mg/kg/injection, schedule: Q01DX005 (ip), vehicle: saline 110 % of control | dose: 100.0 mg/kg/injection, schedule: Q01DX005 (ip), vehicle: saline 100 % of control

CCOc1cnc(CO)o1
inactive: dose: 100.0 mg/kg/injection, schedule: Q04DX003 (ip), vehicle: saline 103 % of control | dose: 200.0 mg/kg/injection, schedule: Q04DX003 (ip), vehicle: saline 104 % of control | dose: 400.0 mg/kg/injection, schedule: Q04DX003 (ip), vehicle: saline 97 % of control

CCN(CC)CC.[CH-]1CCCCC1.[CH-]1CCCCC1.[CH-]1CCCCC1.[Cl-].[Cl-].[Sn+4]
inactive: dose: 3.12 mg/kg/injection, schedule: Q01DX005 (ip), vehicle: saline with Tween-80 107 % of control | dose: 6.25 mg/kg/injection, schedule: Q01DX005 (ip), vehicle: saline with Tween-80 110 % of control

COC1/C=C/OC2(C)Oc3c(C)c(O)c4c(O)c(c(/C=N/N(C)c5nc6c(N)ncnc6n5C5OC(CO)C(O)C5O)c(O)c4c3C2=O)NC(=O)C(C)=C/C=C/C(C)C(O)C(C)C(O)C(C)C(OC(C)=O)C1C (centres undefined)
inactive: [20] 101 % of control | [21] 97 % of control | [22] 101 % of control

CCc1ccccc1NC(=O)C(C#N)C1=C(Cl)C(=O)c2ccccc2C1=O (centres undefined)
inactive: [11] 113 % of control | [12] 106 % of control

CCSc1nc(N)c(Br)c(Sc2nc(N)nc3nc[nH]c23)n1
inactive: [1] 103 % of control | [2] 101 % of control | [3] 97 % of control

CSC(/C=C/c1ccccc1)=Nc1ccccc1
inactive: [16] 99 % of control | dose: 200.0 mg/kg/injection, schedule: Q01DX001 (ip), vehicle: saline with Tween-80 99 % of control | dose: 400.0 mg/kg/injection, schedule: Q01DX001 (ip), vehicle: saline with Tween-80 101 % of control

CN(C)/C=C(\C#N)C=O
inactive: dose: 18.75 mg/kg/injection, schedule: Q01DX009 (ip), vehicle: saline sonified 118 % of control | dose: 37.5 mg/kg/injection, schedule: Q01DX009 (ip), vehicle: saline sonified 109 % of control

CN1NC(=O)c2ccccc2NC1=S
inactive: dose: 50.0 mg/kg/injection, schedule: Q01DX009 (ip), vehicle: Klucel (hydroxypropylcellulose) (HPC) 104 % of control | dose: 100.0 mg/kg/injection, schedule: Q01DX009 (ip), vehicle: Klucel (hydroxypropylcellulose) (HPC) 91 % of control | dose: 200.0 mg/kg/injection, schedule: Q01DX009 (ip), vehicle: Klucel (hydroxypropylcellulose) (HPC) 101 % of control

Cc1cccc(-n2c(-c3ccccc3)cs/c2=N\N=C2/CSC(=O)N2Cc2ccccc2)c1
inactive: dose: 100.0 mg/kg/injection, schedule: Q01DX001 (ip), vehicle: Klucel (hydroxypropylcellulose) (HPC) 101 % of control | dose: 200.0 mg/kg/injection, schedule: Q01DX001 (ip), vehicle: Klucel (hydroxypropylcellulose) (HPC) 101 % of control | dose: 400.0 mg/kg/injection, schedule: Q01DX001 (ip), vehicle: Klucel (hydroxypropylcellulose) (HPC) 99 % of control

COC1CCC(COS(=O)(=O)c2ccc(C)cc2)O1 (centres undefined)
inactive: [20] 105 % of control | [21] 100 % of control | [22] 103 % of control

Cc1ccc(NC(=S)SCc2ccc(Cl)c(Cl)c2)cc1Br
inactive: [4] 113 % of control | [5] 100 % of control | [6] 90 % of control | dose: 200.0 mg/kg/injection, schedule: Q01DX009 (ip), vehicle: suspension in saline 95 % of control

N#CC1CC(=O)c2ccccc2C1=O (centres undefined)
inactive: [17] 102 % of control | [18] 104 % of control | [19] 108 % of control

N#Cc1ccc(NN=NCCOCCCl)cc1
inactive: dose: 6.25 mg/kg/injection, schedule: Q01DX009 (ip), vehicle: distilled water + Tween-80 97 % of control | [7] 107 % of control | [8] 104 % of control | [9] 103 % of control | [10] 104 % of control
